# Experimental data from patent US7163940B2, “Pyrazolopyridinyl pyrimidine therapeutic compounds” (SmithKline Beecham Corporation, priority 2000, dated 2007).
# Counter-ions that a name gives are not always drawn.
# Test system: HSV-1
# Test: HSV-1 replication in infected Vero 76 cells, viral DNA hybridization capture assay
# Assay type: cell-based
# Conditions: HSV-1, Vero 76 cells, MOI=0.001, 40–48 hours incubation
# Method: Vero 76 cells were maintained in MEM with Earle's salts, L-glutamine, 8% FBS (Hyclone, A-1111-L) and 100 units/mL Penicillin-100 μg/mL Streptomycin. For assay conditions, FBS was reduced to 2%. Cells are seeded into 96-well tissue culture plates at a density of 5×10^4 cells/well after being incubated for 45 min at 37° C. in the presence of HSV-1 or HSV-2 (MOI=0.001). Test compounds are added to the wells and the plates are incubated at 37° C. for 40–48 hours. Cell lysates are prepared as follows: media was removed and replaced with 150 μL/well 0.2 N NaOH with 1% Igepal CA 630 or NP-40. Plates were incubated up to 14 days at room temperature in a humidified chamber to prevent evaporation. • (b) Preparation of Detection DNA.
# For the detection probe, a gel-purified, digoxigenin-labeled, […] PCR fragment of the HSV UL-15 sequence was utilized. PCR conditions included 0.5 μM primers, 180 μM dTP, 20 μM dUTP-digoxigenin (Boehringer Mannheim 1558706), 200 μM each of dATP, dCTP, and dGTP, 1×PCR Buffer II (Perkin Elmer), 2.5 mM MgCl2, 0.025 units/μL of AmpliTaq Gold polymerase (Perkin Elmer), and 5 ng of gel-purified HSV DNA per 100 μL. Extension conditions were 10 min at 95° C., followed by 30 cycles of 95° C. for 1 min, 55° C. for 30 sec, and 72° C. for 2 min. The amplification was completed with a 10-min incubation at 72° C. Primers were selected to amplify a 728 bp probe spanning a section of the HSV1 UL15 open reading frame (nucleotides 249–977). Single-stranded transcripts were purified with Promega M13 Wizard kits. The final product was mixed 1:1 with a mixture of 6 M GuSCN, 100 mM EDTA and 200 μg/mL herring sperm DNA and stored at 4° C. • (c) Preparation of Capture Plates.
# The capture DNA plasmid (HSV UL13 region in pUC) was linearized by cutting with Xba I, denatured for 15 min at 95° C. and diluted immediately into Reacti-Bind DNA Coating Solution (Pierce, 17250, diluted 1:1 with TE buffer, pH 8) at 1 ng/μL 75 μL/well were added to Corning (#3922 or 9690) white 96-well plates and incubated at room temperature for at least 4 hrs before washing twice with 300 μL/well 0.2×SSC/0.05% Tween-20 (SSC/T buffer). The plates were then incubated overnight at room temperature with 150 μL/well 0.2 N NaOH, 1% IGEPAL and 10 μg/mL herring sperm DNA. • (d) Hybridization.
# Twenty-seven (27) μL of cell lysate was combined with 45 μL of hybridization solution (final concentration: 3M GuSCN, 50 mM EDTA, 100 μg/ml salmon sperm DNA, 5× Denhardt's solution, 0.25×APE, and 5 ng of the digoxigenin-labeled detection probe). APE is 1.5 M NH4-acetate, 0.15 M ammonium phosphate, and 5 mM EDTA adjusted to pH 6.0. Mineral oil (50 μL) was added to prevent evaporation. The hybridization plates were incubated at 95° C. for 10 minutes to denature the DNA, then incubated at 42° C. overnight. The wells were washed 6× with 300 μL/well SSC/T buffer then incubated with 75 μL/well anti-digoxigenin-HRP-conjugated antibody (Boehringer Mannheim 1207733, 1:5000 in TE) for 30 min at room temperature. The wells were washed 6× with 300 μL/well with PBS/0.05% Tween-20 before 75 μL/well SuperSignal LBA substrate (Pierce) was added. The plates were incubated at room temperature for 30 minutes and chemiluminescence was measured in a Wallac Victor reader. • e) Results.
# The following results were obtained for HSV-1.
row,Structure (SMILES),IC50
1,"Cc1cc(-c2c(-c3ccc(F)cc3)nn3c(NC4CCCC4)cccc23)nc(NC2CCCC2)n1 [Example 8, N-Cyclopentyl-3-[2-(cyclopentylamino)-6-methyl-4-pyrimidinyl]-2-(4-fluorophenyl)pyrazolo[1,5-α]pyridin-7-amine]",800 nM

# Same assay, conditions: Human alphaherpesvirus 1, Vero 76, HSV-1, Vero 76 cells, MOI=0.001, 40–48 hours incubation
row,Structure (SMILES),IC50
1,"CCCCNc1nccc(-c2c(-c3ccc(F)cc3)nn3c(NCCOC)cccc23)n1 [Example 48, 3-[2-(Butylamino)-4-pyrimidinyl]-2-(4-fluorophenyl)-N-(2-methoxyethyl)pyrazolo[1,5-α]pyridin-7-amine]",300 nM
2,"Cc1cnc(NC2CCCC2)nc1-c1c(-c2ccc(F)cc2)nn2c(NC3CCCC3)cccc12 [Example 53, N-Cyclopentyl-3-[2-(cyclopentylamino)-5-methyl-4-pyrimidinyl]-2-(4-fluorophenyl)pyrazolo[1,5-α]pyridin-7-amine]",1000 nM
3,"CCCCNc1cccc2c(-c3ccnc(N4CCN(CCOC)CC4)n3)c(-c3ccc(F)cc3)nn12 [Example 42, N-Butyl-2-(4-fluorophenyl)-3-{2-[4-(2-methoxyethyl)-1-piperazinyl]-4-pyrimidinyl}pyrazolo[1,5-α]pyridin-7-amine]",10000 nM
4,"Fc1ccc(-c2nn3c(NC4CCCC4)cccc3c2-c2ccncc2)cc1 [Example 28, N-cyclopentyl-2-(4-fluorophenyl)-3-(4-pyridinyl)pyrazolo[1,5-α]pyridin-7-amine]",2000 nM
5,"CN1CCN(c2cccc3c(-c4cc(-c5ccccc5)nc(NC5CCCC5)n4)c(-c4ccc(F)cc4)nn23)CC1 [Example 19, N-Cyclopentyl-4-[2-(4-fluorophenyl)-7-(4-methyl-1-piperazinyl)pyrazolo[1,5-α]pyridin-3-yl]-6-phenyl-2-pyrimidinamine hydrochloride]",2500 nM
6,"CCCCNc1cccc2c(-c3ccnc(OCCN4CCOCC4)n3)c(-c3ccc(F)cc3)nn12 [Example 46, N-Butyl-2-(4-fluorophenyl)-3-{2-[2-(4-morpholinyl)ethoxy]-4-pyrimidinyl}pyrazolo[1,5-α]pyridin-7-amine]",7000 nM
7,"Fc1ccc(-c2nn3c(NC4CCCC4)cccc3c2-c2ccnc(NCCCN3CCOCC3)n2)cc1 [Example 13, N-Cyclopentyl-2-(4-fluorophenyl)-3-(2-{[3-(4-morpholinyl)propyl]-amino}-4-pyrimidinyl)pyrazolo[1,5-α]pyridin-7-amine]",6000 nM
8,"CCCCNc1cccc2c(-c3ccnc(N4CCCC4)n3)c(-c3ccc(F)cc3)nn12 [Example 5, N-Butyl-2-(4-fluorophenyl)-3-[2-(1-pyrrolidinyl)-4-pyrimidinyl]pyrazolo[1,5-α]pyridin-7-amine]",5000 nM
9,"CCCCNc1nccc(-c2c(-c3ccc(F)cc3)nn3c(N4CCN(C)CC4)cccc23)n1 [Example 35, N-Butyl-4-[2-(4-fluorophenyl)-7-(4-methyl-1-piperazinyl)pyrazolo[1,5-α]pyridin-3-yl]-2-pyrimidinamine]",900 nM
10,"Fc1ccc(-c2nn3c(N4CCCC4)cccc3c2-c2ccnc(NC3CCCC3)n2)cc1 [Example 31, N-Cyclopentyl-4-[2-(4-fluorophenyl)-7-(1-pyrrolidinyl)pyrazolo[1,5-α]pyridin-3-yl]-2-pyrimidinamine]",1000 nM
11,"Cc1cc(-c2c(-c3ccc(F)cc3)nn3c(NCC(=O)O)cccc23)nc(NC2CCCC2)n1 [Example 25, {[3-[2-(Cyclopentylamino)-6-methyl-4-pyrimidinyl]-2-(4-fluorophenyl)pyrazolo[1,5-α]pyridin-7-yl]amino}acetic acid]",15000 nM
12,"CCCCNc1cccc2c(-c3ccnc(N4CCCC4)n3)c(-c3ccc(Br)cc3)nn12 [Example 9, 2-(4-Bromophenyl)-N-butyl-3-[2-(1-pyrrolidinyl)-4-pyrimidinyl]pyrazolo[1,5-α]pyridin-7-amine]",8000 nM
13,"CC(C)c1nccc(-c2c(-c3ccc(F)cc3)nn3c(Cl)cccc23)n1 [Example 77, 7-Chloro-2-(4-fluorophenyl)-3-(2-isopropylpyrimidin-4-yl)pyrazolo[1,5-α]pyridine]",> 20000 nM
14,"C=CCNc1nccc(-c2c(-c3ccc(F)cc3)nn3c(NCCCC)cccc23)n1 [Example 39, 3-[2-(Allylamino)-4-pyrimidinyl]-N-butyl-2-(4-fluorophenyl)pyrazolo-[1,5-α]pyridin-7-amine]",1000 nM
15,"O=C(NC1CCCC1)c1cc(-c2c(-c3ccc(F)cc3)nn3c(Cl)cccc23)nc(NC2CCCC2)n1 [Example 74, 6-[7-Chloro-2-(4-fluorophenyl)pyrazolo[1,5-α]pyridin-3-yl]-N-cyclopentyl-2-(cyclopentylamino)pyrimidine-4-carboxamide]",> 20000 nM
16,"Fc1ccc(-c2nn3c(Cl)cccc3c2-c2ccnc(NC3CC3)n2)cc1 [Example 79, 4-[7-Chloro-2-(4-fluorophenyl)pyrazolo[1,5-α]pyridin-3-yl]-N-cyclopropylpyrimidin-2-amine]",> 20000 nM
17,"CCCCNc1cccc2c(-c3ccnc(NCc4ccccn4)n3)c(-c3ccc(F)cc3)nn12 [Example 43, N-Butyl-2-(4-fluorophenyl)-3-{2-[(2-pyridinylmethyl)amino]-4-pyrimidinyl}pyrazolo[1,5-α]pyridin-7-amine]",3000 nM
18,"Nc1nccc(-c2c(-c3ccc(F)cc3)nn3c(NC4CCCC4)cccc23)n1 [Example 12, 3-(2-Amino-4-pyrimidinyl)-N-cyclopentyl-2-(4-fluorophenyl)pyrazolo[1,5-α]pyridin-7-amine]",500 nM
19,"CCCCNc1nccc(-c2c(-c3ccc(Br)cc3)nn3c(NCCCC)cccc23)n1 [Example 2, 2-(4-Bromophenyl)-N-butyl-3-[2-(butylamino)-4-pyrimidinyl]pyrazolo[1,5-α]pyridin-7-amine]",700 nM
20,"COC(=O)CNc1cccc2c(-c3cc(C)nc(NC4CCCC4)n3)c(-c3ccc(F)cc3)nn12 [Example 24, Methyl {[3-[2-(cyclopentylamino)-6-methyl-4-pyrimidinyl]-2-(4-fluorophenyl)pyrazolo[1,5-α]pyridin-7-yl]amino}acetate]",10000 nM
21,"CCCCNc1nccc(-c2c(-c3ccc(F)cc3)nn3c(NC)cccc23)n1 [Example 49, 3-[2-(Butylamino)-4-pyrimidinyl]-2-(4-fluorophenyl)-N-methylpyrazolo[1,5-α]pyridin-7-amine]",1200 nM
22,"CN1CCCC1CCNc1cccc2c(-c3ccncc3)c(-c3ccc(F)cc3)nn12 (stereo not drawn) [Example 57, N-[2-(4-Fluorophenyl)-3-(4-pyridinyl)pyrazolo[1,5-α]pyridin-7-yl]-N-[2-(1-methyl-2-pyrrolidinyl)ethyl]amine]",700 nM
23,"Fc1ccc(-c2nn3c(NC4CCCC4)cccc3c2-c2ccnc(NC3CCCC3)c2)cc1 [Example 29, N-Cyclopentyl-3-[2-(cyclopentylamino)-4-pyridinyl]-2-(4-fluorophenyl)pyrazolo[1,5-α]pyridin-7-amine]",300 nM
24,"Cc1cc(-c2c(-c3ccc(F)cc3)nn3c(NN)cccc23)nc(NC2CCCC2)n1 [Example 14, N-Cyclopentyl-4-[2-(4-fluorophenyl)-7-hydrazinopyrazolo[1,5-α]pyridin-3-yl]-6-methyl-2-pyrimidinamine]",5000 nM
25,"CNc1cccc2c(-c3ccncc3)c(-c3ccc(F)cc3)nn12 [Example 58, 2-(4-Fluorophenyl)-N-methyl-3-(4-pyridinyl)pyrazolo[1,5-α]pyridin-7-amine]",10500 nM
26,"OCc1cc(-c2c(-c3ccc(F)cc3)nn3c(NC4CCCC4)cccc23)nc(NC2CCCC2)n1 [Example 22, {2-(Cyclopentylamino)-6-[7-(cyclopentylamino)-2-(4-fluorophenyl)pyrazolo[1,5-α]pyridin-3-yl]-4-pyrimidinyl}methanol]",5000 nM
